Source: ChEMBL document CHEMBL1201862, “PubChem BioAssay data set” (2004)
Activity calls are given as the source filed them.

How the values were obtained:
[1] = luciferase reporter signal suppression in cells – H4 neuroglioma cells, luminescence, dose response (AID 1990); format: functional, cell-based
HEK293 [2] = assay: inhibition of NOD1-driven NF-kB reporter – cell-based, luminescence, uHTS, primary screen (AID 1578); format: functional; conditions: Homo sapiens
HEK293 [3] = assay: cells; format: functional, cell-based; conditions: Homo sapiens
[4] = Luminescence Cell-Based Dose Response HTS to Identify Inhibitors of 5'UTR Stem-Loop Driven Prion Protein mRNA Translation in H4 Neuroglioblastoma Cells. [Related pubchem assays: 1827 (Project Summary), 1813 (Primary HTS)]; format: functional
[5] = alpha-synuclein stem-loop luciferase translation blockers – H4 neuroglioma cells, luminescence, confirmation (AID 1988); format: functional, cell-based
HEK293 [6] = assay: cells; format: functional, cell-based; conditions: Homo sapiens; remark: listed apart in the source
[7] = target: Luciferin 4-monooxygenase (Photinus pyralis, UniProt P08659); assay: inhibition of purified Photinus pyralis luciferase – biochemical, luminescence, dose response (AID 1891)
[8] = Luminescence Cell-Based Dose Confirmation HTS to Identify Inhibitors of Platelet Dense Granule Release. [Related pubchem assays: 1663 (Primary HTS), 1678 (Summary of Project)]; format: functional
[9] = target: Nucleotide-binding oligomerization domain-containing protein 2 (Homo sapiens, UniProt Q9HC29); assay: inhibition of NOD2-driven NF-kB reporter – cell-based, luminescence, uHTS, HEK293 (AID 1566); format: functional
HEK293 [10] = assay: NOD2 signaling inhibitors in MDP-stimulated cells, cell-based, uHTS, luminescence (AID 2001); format: functional; conditions: Homo sapiens
HEK293 [11] = assay: cells; format: functional, cell-based; conditions: Homo sapiens; remark: listed apart in the source
[12] = target: Alkaline phosphatase, placental type (Homo sapiens, UniProt P05187); assay: human placental alkaline phosphatase inhibition – biochemical, luminescence, confirmation (AID 1512); format: functional
[13] = target: T1, Alkaline phosphatase, tissue-nonspecific isozyme (Homo sapiens, UniProt P05186); assay: potency against alkaline phosphatase TNAP – biochemical, luminescent, dose response, SAR follow-up (AID 1056)
T1 sequence (P05186 whole entry): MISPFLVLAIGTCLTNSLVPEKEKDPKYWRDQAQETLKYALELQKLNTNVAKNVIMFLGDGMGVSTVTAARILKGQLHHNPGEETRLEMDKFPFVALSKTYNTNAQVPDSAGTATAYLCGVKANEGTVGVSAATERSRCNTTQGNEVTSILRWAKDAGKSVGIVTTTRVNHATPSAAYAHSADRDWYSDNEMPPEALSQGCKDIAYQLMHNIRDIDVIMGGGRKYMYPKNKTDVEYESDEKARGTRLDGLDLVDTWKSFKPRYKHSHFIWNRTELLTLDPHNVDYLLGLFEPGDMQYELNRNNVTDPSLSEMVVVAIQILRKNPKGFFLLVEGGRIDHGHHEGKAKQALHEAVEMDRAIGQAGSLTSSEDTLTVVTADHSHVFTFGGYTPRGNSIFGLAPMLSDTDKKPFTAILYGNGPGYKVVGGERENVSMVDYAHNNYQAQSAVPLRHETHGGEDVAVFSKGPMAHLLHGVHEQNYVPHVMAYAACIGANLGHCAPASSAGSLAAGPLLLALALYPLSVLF

[14] = target: T2, RNA-binding protein pos-1 (Caenorhabditis elegans, UniProt G5EF15); assay: disruptors of C. elegans POS-1 RNA interaction – biochemical, fluorescence polarization, dose response (AID 1964);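 also: purified POS-1 fused to maltose binding protein made in E. coli; potency of compounds blocking POS-1 binding to fluorescent RNA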
T2 sequence (G5EF15 whole entry): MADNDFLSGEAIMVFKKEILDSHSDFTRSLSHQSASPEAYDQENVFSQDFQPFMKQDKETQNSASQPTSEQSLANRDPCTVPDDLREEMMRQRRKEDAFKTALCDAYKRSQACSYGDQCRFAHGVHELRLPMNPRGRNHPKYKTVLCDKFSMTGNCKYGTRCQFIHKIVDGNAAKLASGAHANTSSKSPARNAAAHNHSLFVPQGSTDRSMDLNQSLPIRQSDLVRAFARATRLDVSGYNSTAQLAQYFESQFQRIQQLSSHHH

[15] = target: T3, Zinc finger protein mex-5 (Caenorhabditis elegans, UniProt Q9XUB2); assay: potency of MEX-5 RNA-binding blockers – biochemical, C. elegans, fluorescence polarization, dose response (AID 1960)
T3 sequence (Q9XUB2 whole entry): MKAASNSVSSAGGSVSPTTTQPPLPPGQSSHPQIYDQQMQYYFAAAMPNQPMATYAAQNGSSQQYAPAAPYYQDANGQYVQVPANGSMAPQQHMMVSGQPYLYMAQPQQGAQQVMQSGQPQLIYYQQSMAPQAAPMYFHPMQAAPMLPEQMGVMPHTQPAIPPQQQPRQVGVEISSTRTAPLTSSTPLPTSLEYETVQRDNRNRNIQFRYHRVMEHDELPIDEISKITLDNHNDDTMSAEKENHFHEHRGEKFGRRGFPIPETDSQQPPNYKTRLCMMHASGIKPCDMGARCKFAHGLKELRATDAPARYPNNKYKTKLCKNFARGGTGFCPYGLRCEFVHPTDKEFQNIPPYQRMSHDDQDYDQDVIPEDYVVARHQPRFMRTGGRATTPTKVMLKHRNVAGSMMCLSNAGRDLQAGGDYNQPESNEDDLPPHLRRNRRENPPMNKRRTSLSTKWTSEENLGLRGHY

Large T antigen = Large T antigen (Simian virus 40, UniProt P03070); format: functional, Betapolyomavirus macacae;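 also: Confirmatory-stage PubChem screen for compounds that inhibit SV40 T antigen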
[16] = target: Glucose-6-phosphate 1-dehydrogenase (Homo sapiens, UniProt P11413); assay: inhibition of Homo sapiens G6PD, dose series – biochemical, fluorescence, selectivity assay for P. falciparum G6PD inhibitor project, dose response (AID 504792); format: functional
[17] = target: Dual specificity tyrosine-phosphorylation-regulated kinase 1A (Rattus norvegicus, UniProt Q63470); format: biochemical, Homo sapiens
[18] = NIH-3T3 fibroblast cytotoxicity, dose response, cytotoxicity control, cell-based, fluorescence, Alamar Blue, secondary assay (AID 2327); format: functional;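 also: NIH-3T3 mouse fibroblasts cultured with fluconazole at 8 µg/mL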
Beta-galactosidase [19] = target: T4, Beta-galactosidase (Escherichia coli, UniProt Q8VNN2); assay: detection-enzyme interference by beta-gal modulators – biochemical, E. coli enzyme, set 3, artefact control for CCR6 antagonist project, dose response (AID 504712); format: functional
Nonstructural protein 1 = Nonstructural protein 1 (Influenza A virus, UniProt Q194T2); format: functional, Influenza A virus (A/California/07/2009(H1N1))
Cytochrome P450 3A4 = Cytochrome P450 3A4 (Homo sapiens, UniProt P08684);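 also: CYP3A4 tested as one member of a cytochrome P450 panel screen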
[20] = target: Intestinal-type alkaline phosphatase (Mus musculus, UniProt P24822); assay: PubChem AID 488785; format: functional
[21] = target: T1, Alkaline phosphatase, tissue-nonspecific isozyme; assay: TNAP enzyme inhibition by screening hits, dose response, selectivity assay for mouse IAP inhibitor project, biochemical, human TNAP, uHTS hits (AID 488906); format: functional
[22] = target: Intestinal-type alkaline phosphatase (Homo sapiens, UniProt P09923); assay: inhibition of human intestinal alkaline phosphatase – biochemical, dose response (AID 488876); format: functional
Albumin = Albumin (Bos taurus, UniProt P02769); assay: Counterscreen for inhibitors of T-cell receptor (TCR)-CD3 interaction: Fluorescence-based biochemical high throughput dose response assay to identify inhibitors of T-cell receptor (TCR)-CD3 interaction using a TAMRA-labeled BSA probe.; format: functional
[23] = target: T5, Histone-lysine N-methyltransferase NSD2 (Homo sapiens, UniProt O96028); format: biochemical
T5 sequence (O96028 whole entry): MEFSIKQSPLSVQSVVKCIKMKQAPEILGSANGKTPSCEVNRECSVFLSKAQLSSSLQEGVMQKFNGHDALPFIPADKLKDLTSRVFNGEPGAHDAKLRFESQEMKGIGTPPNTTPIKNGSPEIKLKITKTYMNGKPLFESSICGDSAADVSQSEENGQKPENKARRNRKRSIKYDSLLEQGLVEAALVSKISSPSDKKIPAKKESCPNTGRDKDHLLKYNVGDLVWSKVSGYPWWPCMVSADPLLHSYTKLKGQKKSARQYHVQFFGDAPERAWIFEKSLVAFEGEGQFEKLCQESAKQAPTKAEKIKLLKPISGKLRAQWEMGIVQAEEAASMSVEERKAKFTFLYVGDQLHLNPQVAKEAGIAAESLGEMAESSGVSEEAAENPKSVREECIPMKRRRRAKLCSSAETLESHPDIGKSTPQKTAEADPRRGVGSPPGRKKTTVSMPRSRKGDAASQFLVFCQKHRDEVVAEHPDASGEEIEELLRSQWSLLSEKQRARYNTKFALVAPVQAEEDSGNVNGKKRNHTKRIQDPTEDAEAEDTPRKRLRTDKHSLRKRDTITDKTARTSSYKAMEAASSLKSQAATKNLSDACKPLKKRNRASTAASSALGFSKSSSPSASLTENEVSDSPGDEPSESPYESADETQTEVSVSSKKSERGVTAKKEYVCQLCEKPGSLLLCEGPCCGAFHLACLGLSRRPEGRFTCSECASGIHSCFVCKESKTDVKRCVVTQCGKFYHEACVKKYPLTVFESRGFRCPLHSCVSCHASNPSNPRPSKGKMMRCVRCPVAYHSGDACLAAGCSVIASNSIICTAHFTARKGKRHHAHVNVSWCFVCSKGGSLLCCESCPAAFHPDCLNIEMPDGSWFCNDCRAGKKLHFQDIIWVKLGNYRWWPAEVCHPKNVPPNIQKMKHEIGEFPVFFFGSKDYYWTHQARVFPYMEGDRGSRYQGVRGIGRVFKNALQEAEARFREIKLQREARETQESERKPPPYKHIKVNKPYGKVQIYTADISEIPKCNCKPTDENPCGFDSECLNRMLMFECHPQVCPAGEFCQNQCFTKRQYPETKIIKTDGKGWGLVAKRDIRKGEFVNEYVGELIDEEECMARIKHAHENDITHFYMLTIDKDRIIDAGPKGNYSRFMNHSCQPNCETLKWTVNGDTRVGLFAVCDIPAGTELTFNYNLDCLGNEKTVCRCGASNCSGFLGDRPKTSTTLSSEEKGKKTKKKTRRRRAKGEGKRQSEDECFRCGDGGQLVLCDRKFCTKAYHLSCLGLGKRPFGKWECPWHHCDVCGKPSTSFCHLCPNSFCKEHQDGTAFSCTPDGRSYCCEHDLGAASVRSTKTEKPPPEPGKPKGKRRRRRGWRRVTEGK

[24] = target: T6, Delta-type opioid receptor (Homo sapiens, UniProt P41143); assay: HTS Image-Based Screen for Antagonists of the DOR Receptor. [Related pubchem assays (depositor defined):AID1777, AID1785, AID1786, AID2133]; format: functional
Mu-type opioid receptor = Mu-type opioid receptor (Homo sapiens, UniProt P35372); assay: HTS Image-Based Screen for Agonists of the MOR Receptor. [Related pubchem assays (depositor defined):AID1777, AID1785, AID1786, AID2133]; format: functional;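 also: imaging of beta-arrestin GFP recruitment into spots after receptor activation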
[25] = target: T6, Delta-type opioid receptor; assay: HTS Image-Based Screen for Agonists of the DOR Receptor. [Related pubchem assays (depositor defined):AID1777, AID1786, AID2133]; format: functional
[26] = target: T7, Kappa-type opioid receptor (Homo sapiens, UniProt P41145); format: functional
Beta-galactosidase [27] = target: T4, Beta-galactosidase; format: functional
[28] = target: T7, Kappa-type opioid receptor; format: functional; remark: listed apart in the source
[29] = target: Glyceraldehyde-3-phosphate dehydrogenase (Homo sapiens, UniProt P04406)
Cytochrome P450 2C9 = Cytochrome P450 2C9 (Homo sapiens, UniProt P11712)

Alkaline phosphatase, placental type, sequence (P05187 whole entry): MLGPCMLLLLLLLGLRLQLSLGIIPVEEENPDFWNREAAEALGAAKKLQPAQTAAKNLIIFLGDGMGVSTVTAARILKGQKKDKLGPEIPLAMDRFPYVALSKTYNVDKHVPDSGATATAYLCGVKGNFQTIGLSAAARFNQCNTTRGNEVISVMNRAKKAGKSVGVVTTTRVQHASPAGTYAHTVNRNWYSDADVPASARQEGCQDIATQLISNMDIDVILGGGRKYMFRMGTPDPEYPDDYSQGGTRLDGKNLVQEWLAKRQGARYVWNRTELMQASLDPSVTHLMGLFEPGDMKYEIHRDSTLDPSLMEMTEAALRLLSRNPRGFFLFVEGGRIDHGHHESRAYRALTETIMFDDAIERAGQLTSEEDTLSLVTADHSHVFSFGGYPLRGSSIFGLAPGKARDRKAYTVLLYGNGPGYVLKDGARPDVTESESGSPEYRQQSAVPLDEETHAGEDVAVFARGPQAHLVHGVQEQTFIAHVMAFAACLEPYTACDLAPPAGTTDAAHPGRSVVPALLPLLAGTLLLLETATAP
Cytochrome P450 3A4, sequence (P08684 whole entry): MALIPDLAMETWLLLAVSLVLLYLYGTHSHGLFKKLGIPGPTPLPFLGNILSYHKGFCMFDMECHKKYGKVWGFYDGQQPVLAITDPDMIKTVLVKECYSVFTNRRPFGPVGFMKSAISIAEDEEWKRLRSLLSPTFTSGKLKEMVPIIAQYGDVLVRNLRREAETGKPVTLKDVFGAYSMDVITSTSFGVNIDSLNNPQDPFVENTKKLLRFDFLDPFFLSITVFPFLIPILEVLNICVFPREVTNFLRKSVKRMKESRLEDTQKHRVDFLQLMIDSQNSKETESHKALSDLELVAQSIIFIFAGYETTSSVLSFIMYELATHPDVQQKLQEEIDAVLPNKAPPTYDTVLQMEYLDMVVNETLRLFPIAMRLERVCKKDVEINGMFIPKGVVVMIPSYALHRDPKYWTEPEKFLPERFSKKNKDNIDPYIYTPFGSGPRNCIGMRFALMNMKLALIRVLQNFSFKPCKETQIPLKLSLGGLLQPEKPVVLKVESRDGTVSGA
T4 sequence (Q8VNN2 whole entry): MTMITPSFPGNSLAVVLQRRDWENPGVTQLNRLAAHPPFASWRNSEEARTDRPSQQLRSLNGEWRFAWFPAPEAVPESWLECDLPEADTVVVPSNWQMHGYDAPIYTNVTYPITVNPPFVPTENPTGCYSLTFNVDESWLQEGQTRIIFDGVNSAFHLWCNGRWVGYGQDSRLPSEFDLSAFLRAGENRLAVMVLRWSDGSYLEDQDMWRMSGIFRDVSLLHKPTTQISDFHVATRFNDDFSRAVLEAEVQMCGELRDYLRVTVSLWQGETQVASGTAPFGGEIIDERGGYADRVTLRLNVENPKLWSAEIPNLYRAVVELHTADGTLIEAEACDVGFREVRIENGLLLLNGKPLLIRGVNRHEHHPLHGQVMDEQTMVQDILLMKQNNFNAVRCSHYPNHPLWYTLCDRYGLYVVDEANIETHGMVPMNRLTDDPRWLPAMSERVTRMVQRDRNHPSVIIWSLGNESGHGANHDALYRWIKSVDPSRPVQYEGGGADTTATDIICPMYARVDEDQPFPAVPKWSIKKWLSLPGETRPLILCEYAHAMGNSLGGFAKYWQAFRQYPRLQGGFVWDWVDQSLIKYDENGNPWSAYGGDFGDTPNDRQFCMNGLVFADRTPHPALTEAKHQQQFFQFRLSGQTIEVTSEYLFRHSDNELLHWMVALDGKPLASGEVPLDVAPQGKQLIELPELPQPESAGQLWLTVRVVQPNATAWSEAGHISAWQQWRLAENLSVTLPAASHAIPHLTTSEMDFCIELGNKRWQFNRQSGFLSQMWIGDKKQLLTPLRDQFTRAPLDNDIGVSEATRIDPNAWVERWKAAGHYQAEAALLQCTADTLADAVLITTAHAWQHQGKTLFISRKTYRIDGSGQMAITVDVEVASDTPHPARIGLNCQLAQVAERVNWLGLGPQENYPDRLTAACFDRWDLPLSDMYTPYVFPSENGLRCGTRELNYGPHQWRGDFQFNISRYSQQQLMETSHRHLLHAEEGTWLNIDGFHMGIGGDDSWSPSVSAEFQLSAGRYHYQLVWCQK
T7 sequence (P41145 whole entry): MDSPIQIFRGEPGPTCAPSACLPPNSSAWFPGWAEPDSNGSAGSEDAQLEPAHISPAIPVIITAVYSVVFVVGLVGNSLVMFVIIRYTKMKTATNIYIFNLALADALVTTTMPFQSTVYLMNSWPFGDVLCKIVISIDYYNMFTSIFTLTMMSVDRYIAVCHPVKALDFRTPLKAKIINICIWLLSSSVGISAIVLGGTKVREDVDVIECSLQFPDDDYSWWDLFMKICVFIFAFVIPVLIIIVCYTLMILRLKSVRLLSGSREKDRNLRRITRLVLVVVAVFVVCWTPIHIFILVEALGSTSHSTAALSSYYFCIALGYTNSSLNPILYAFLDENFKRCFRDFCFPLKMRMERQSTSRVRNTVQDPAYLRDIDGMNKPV
Large T antigen, sequence (P03070 whole entry): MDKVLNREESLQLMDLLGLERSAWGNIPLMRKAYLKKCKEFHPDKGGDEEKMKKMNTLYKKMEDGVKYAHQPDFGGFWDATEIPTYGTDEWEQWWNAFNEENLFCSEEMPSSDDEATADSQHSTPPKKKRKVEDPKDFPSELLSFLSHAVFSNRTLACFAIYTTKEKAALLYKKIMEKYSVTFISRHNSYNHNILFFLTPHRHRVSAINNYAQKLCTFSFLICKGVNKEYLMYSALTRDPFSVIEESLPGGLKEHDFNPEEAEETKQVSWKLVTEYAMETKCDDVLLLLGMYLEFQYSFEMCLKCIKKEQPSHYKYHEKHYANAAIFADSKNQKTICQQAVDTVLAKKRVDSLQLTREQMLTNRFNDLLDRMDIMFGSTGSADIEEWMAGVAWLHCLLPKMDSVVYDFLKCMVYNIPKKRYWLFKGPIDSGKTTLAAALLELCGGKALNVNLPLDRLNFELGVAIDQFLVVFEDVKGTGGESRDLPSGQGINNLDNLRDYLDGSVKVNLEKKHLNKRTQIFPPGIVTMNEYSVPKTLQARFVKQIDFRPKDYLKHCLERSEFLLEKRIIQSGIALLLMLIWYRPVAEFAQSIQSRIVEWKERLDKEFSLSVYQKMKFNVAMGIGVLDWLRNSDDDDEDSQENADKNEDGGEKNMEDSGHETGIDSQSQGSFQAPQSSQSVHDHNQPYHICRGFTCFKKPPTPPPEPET
Glyceraldehyde-3-phosphate dehydrogenase, sequence (P04406 whole entry): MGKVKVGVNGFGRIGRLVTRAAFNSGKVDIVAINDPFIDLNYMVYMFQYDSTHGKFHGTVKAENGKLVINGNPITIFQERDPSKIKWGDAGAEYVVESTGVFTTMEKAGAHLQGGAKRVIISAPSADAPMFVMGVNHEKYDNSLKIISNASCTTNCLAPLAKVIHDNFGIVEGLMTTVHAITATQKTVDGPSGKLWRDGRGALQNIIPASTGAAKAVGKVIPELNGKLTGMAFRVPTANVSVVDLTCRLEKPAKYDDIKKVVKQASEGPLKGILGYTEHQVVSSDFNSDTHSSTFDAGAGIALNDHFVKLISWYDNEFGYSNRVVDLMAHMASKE
T6 sequence (P41143 whole entry): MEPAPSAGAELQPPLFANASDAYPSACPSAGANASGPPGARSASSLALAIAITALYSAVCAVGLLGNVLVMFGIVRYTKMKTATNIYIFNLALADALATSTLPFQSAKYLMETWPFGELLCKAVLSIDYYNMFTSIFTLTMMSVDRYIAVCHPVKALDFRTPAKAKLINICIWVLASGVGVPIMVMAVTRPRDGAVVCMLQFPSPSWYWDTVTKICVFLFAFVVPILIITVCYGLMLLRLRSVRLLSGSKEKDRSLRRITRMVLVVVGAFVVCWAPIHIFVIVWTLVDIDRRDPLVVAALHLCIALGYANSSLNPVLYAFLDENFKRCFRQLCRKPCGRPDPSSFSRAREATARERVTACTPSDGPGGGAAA
Nonstructural protein 1, sequence (Q194T2 whole entry): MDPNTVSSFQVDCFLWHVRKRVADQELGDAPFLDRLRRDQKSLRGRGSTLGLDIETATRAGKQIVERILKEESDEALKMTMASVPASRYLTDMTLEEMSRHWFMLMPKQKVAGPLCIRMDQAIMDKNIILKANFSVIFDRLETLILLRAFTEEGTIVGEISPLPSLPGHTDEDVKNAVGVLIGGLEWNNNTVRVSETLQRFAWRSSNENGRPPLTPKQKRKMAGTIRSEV
Intestinal-type alkaline phosphatase (Mus musculus, UniProt P24822), sequence (P24822 whole entry): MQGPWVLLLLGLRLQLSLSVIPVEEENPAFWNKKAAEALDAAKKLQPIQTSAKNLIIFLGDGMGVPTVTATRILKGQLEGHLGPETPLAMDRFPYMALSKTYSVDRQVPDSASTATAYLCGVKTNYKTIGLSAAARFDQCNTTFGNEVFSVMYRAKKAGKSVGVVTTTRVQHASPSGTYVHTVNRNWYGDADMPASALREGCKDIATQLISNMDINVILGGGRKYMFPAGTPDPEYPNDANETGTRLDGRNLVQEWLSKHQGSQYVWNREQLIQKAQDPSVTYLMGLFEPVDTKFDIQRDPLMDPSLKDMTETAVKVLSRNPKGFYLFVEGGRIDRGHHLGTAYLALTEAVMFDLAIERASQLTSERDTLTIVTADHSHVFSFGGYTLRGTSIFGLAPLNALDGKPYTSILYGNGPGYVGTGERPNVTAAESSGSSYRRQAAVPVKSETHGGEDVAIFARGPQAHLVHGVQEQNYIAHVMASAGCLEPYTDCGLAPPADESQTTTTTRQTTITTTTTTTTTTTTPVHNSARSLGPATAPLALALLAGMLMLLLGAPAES

Cc1cc(/C=N/Nc2ncnc(N)c2[N+](=O)[O-])c(C)n1-c1ccccc1
EC50 [1]: 0.171 µM (active) | EC50 (HEK293 [2]): 4.14 µM (active) | IC50 (HEK293 [3]): 1.4 µM (active) | EC50 [4]: < 0.1 µM (active) | EC50 [5]: 0.192 µM (active) | IC50 (HEK293 [6]): > 20 µM (inactive) | EC50 [7]: 1.1 µM (active) | EC50 [8]: 3.67 µM (active) | EC50 [9]: < 0.31 µM (inactive) | IC50 (HEK293 [10]): 6.1 µM (active) | IC50 (HEK293 [11]): > 20 µM (inactive)

COc1ccc(C(=O)CSc2nc(C)cc(C)n2)cc1
IC50 [12]: > 100 µM (inactive) | IC50 [13]: > 100 µM (inactive)

COc1cc(-c2cc(=O)c3c(O)c(OC)c(OC)c(O)c3o2)ccc1O [ISOTHYMONIN]
EC50 [14]: 48 µM (active) | EC50 [15]: 7.08 µM (inconclusive) | IC50 (Large T antigen): 6.77 µM (active) | IC50 [16]: > 80 µM (inactive) | AC50 [17]: 0.892 µM (active)

Cc1c(N=NC2=C(O)CC(C)(C)CC2=O)c(=O)n(-c2ccccc2)n1C
EC50 [18]: > 160 µM (inactive) | IC50 (Beta-galactosidase [19]): > 66.6 µM (inactive) | IC50 (Nonstructural protein 1): 3.63 µM (active)

CN(C)c1ccnc(-c2ccccc2C(F)(F)F)n1
AC50 (Cytochrome P450 3A4): inconclusive

CC(C)(C)C1CCC(OCC(O)CN2CCN(c3ccccc3)CC2)CC1.Cl (stereo not drawn)
AC50 (Cytochrome P450 3A4): inconclusive

O=C(Cc1nnc(NC(=O)c2ccccc2)s1)N/N=C\c1ccc(O)c(O)c1
IC50 (Large T antigen): 20.8 µM (active) | IC50 [20]: 24.6 µM (active) | IC50 [21]: > 100 µM (inactive) | IC50 [22]: > 100 µM (inactive) | IC50 (Albumin): > 94.1 µM (inactive) | AC50 [23]: 5.23 µM (active)

CC(=O)N1N=C(c2cccs2)CC1c1cccc([N+](=O)[O-])c1 (stereo not drawn)
IC50 [24]: > 32 µM (inactive) | EC50 (Mu-type opioid receptor): > 32 µM (inactive) | EC50 [25]: > 32 µM (inactive) | IC50 [26]: 14.4 µM (active) | EC50 (Beta-galactosidase [27]): 20.4 µM (active) | IC50 [28]: > 32 µM

COC(=O)c1ccccc1NC(=O)CSc1nnc(-c2ccccc2Cl)[nH]1
IC50 [29]: > 100 µM (not active) | IC50 [12]: > 100 µM (inactive) | IC50 [13]: 4.88 µM (active)

O=C(c1cc(-c2cc(F)c(Cl)cc2Cl)[nH]n1)N1CCCCC1
IC50 [29]: > 100 µM (not active) | IC50 [12]: > 100 µM (inactive) | IC50 [13]: 0.322 µM (active)

CCOC(=O)c1c(C)nc2sc3c(=O)n(-c4ccc(C)cc4)cnc3c2c1-c1ccc(OC)cc1
AC50 (Cytochrome P450 2C9): 0.355 µM (inconclusive) | AC50 (Cytochrome P450 3A4): inconclusive
